# Reference: paper PMC3435245, “D-Alanylation of Lipoteichoic Acids Confers Resistance to Cationic Peptides in Group B Streptococcus by Increasing the Cell Wall Density” (PLoS Pathogens, 2012)
# Marks after values point to notes of the source that are not given here. Where a SMILES comes first, the peptide text is derived from it.
# What was measured:
# GBS ΔdltA mutant = assay: MIC90 by dilution method, GBS ΔdltA; type: cell-based, Streptococcus agalactiae; conditions: Todd-Hewitt broth with 100 mM HEPES, 2×10^6 CFU, 96-well polypropylene microplate, overnight 37°C, OD600 nm; average of triplicate measurements
# Description: (§1) The MICs of each antimicrobial peptide were tested in Todd-Hewitt broth (THB) buffered with 100 mM HEPES in 96-well polypropylene microplates (Costar, Cambridge, MA) by a dilution method. Bacteria (2×10^6 CFU) were added in triplicates to wells containing increasing concentrations of the antimicrobial peptides. Plates were incubated at 37°C with shaking overnight and then read (OD600 nm) using microplate reader (Labsystems Multiskanat) for bacterial growth. The MICs90 was considered to be the peptide concentration that inhibited 90% growth.
# GBS Δlgt Δlsp mutant = assay: MIC90 by dilution method, GBS Δlgt Δlsp; type: cell-based, Streptococcus agalactiae; conditions: Todd-Hewitt broth with 100 mM HEPES, 2×10^6 CFU, 96-well polypropylene microplate, overnight 37°C, OD600 nm; average of triplicate measurements
# Description: as §1
# GBS ΔcpsD mutant = assay: MIC90 by dilution method, GBS ΔcpsD; type: cell-based, Streptococcus agalactiae; conditions: Todd-Hewitt broth with 100 mM HEPES, 2×10^6 CFU, 96-well polypropylene microplate, overnight 37°C, OD600 nm; average of triplicate measurements
# Description: as §1
# [1] = RP-HPLC hydrophobicity (% AcN at elution); type: physicochemical; conditions: chromatographic, C4 reverse analytical column; eluted in 40 min, linear gradient of acetonitrile 30 to 70% v/v in water containing TFA (0.05% v/v)
# Description: The procedure conducted as described previously. Briefly, peptides were synthesized using the Fmoc solid phase method on Rink amide resin ([…]). For fluorescent labeling of the N-terminus of the peptides, resin-bound peptides were treated with NBD or rhodamine dissolved in dimethyl formamide (DMF), washed thoroughly with DMF and then with methylene chloride, dried and then cleaved. […] The peptides were subjected to amino acid and mass spectrometry analysis to confirm their composition.
# GBS ΔmprF mutant = assay: MIC90 by dilution method, GBS ΔmprF; type: cell-based, Streptococcus agalactiae; conditions: Todd-Hewitt broth with 100 mM HEPES, 2×10^6 CFU, 96-well polypropylene microplate, overnight 37°C, OD600 nm; average of triplicate measurements
# Description: as §1
# GBS NEM316 WT strain = type: cell-based, Streptococcus agalactiae; conditions: Todd-Hewitt broth with 100 mM HEPES, 2×10^6 CFU, 96-well polypropylene microplate, overnight 37°C, OD600 nm; average of triplicate measurements
# Description: as §1
# GBS ΔsrtA mutant = assay: MIC90 by dilution method, GBS ΔsrtA; type: cell-based, Streptococcus agalactiae; conditions: Todd-Hewitt broth with 100 mM HEPES, 2×10^6 CFU, 96-well polypropylene microplate, overnight 37°C, OD600 nm; average of triplicate measurements
# Description: as §1
# GBS dltA mutant = assay: Rhodamine-labeled peptide fluorescence self-quenching on addition of bacteria (aggregation), dltA; type: cell-based, Streptococcus agalactiae; conditions: rhodamine-labeled peptide 1 µM
# Text: (§2) We further investigated whether the increased cell wall density resulting from D-alanylation of LTAs can reduce CAMPs penetration through the cell wall barrier by following the interaction of fluorescently labeled CAMPs with intact bacteria. […] Here, we investigated if the peptides display different aggregation states when bound to the WT or the dltA mutant strains. This was done by monitoring changes in the signal intensity of rhodamine-labeled peptides following their interaction with the bacterial surface under under high (160 mM NaCl) and low (16 mM NaCl) ionic strength conditions. Addition of bacteria to the rhodamine-labeled peptides induced self-quenching of fluorescence for all tested peptides. However, no significant difference in aggregation was found in the WT compared to the dltA strain (Figure 7A and Table 3).
# Real time tracking of the changes in the fluorescent signal of rhodamine or NBD labeled peptides was performed using an SLM-Aminco Bowman series 2-luminescence spectrophotometer (SLM-Aminco, Rochester, NY, USA) at room temperature. Typical spectral bandwidths were 5 nm for excitation and 5 nm for emission. […] The peptides were placed in a 5×5-mm quartz cuvette with constant magnetic stirring. Following signal stabilization, bacterial suspension (10 µl, OD600 nm adjusted to 4) or liposomes suspension (100 µM lipid final concentration) composed of cardiolipid/PG (1∶1 M/M) was added to the cuvette and the change in signal was monitored over time.
# GBS WT strain = assay: Rhodamine-labeled peptide fluorescence self-quenching on addition of bacteria (aggregation), WT; type: cell-based, Streptococcus agalactiae; conditions: rhodamine-labeled peptide 1 µM, self-quenching (aggregation) relative to basal signal of the peptide after addition of bacteria, room temperature; means of triplicate measurements from two independent experiments
# Text: as §2
# Real time tracking of the changes in the fluorescent signal of rhodamine or NBD labeled peptides was performed using an SLM-Aminco Bowman series 2-luminescence spectrophotometer (SLM-Aminco, Rochester, NY, USA) at room temperature. Typical spectral bandwidths were 5 nm for excitation and 5 nm for emission. […] Following signal stabilization, bacterial suspension (10 µl, OD600 nm adjusted to 4) or liposomes suspension (100 µM lipid final concentration) composed of cardiolipid/PG (1∶1 M/M) was added to the cuvette and the change in signal was monitored over time.
# [2] = self-quenching (aggregation) relative to basal signal of the peptide after addition of bacteria, room temperature, means of triplicate measurements from two independent experiments
Molecule,"MIC90, ΔdltA (GBS ΔdltA mutant) [µM]","MIC90, Δlgt Δlsp (GBS Δlgt Δlsp mutant) [µM]","MIC90, ΔcpsD (GBS ΔcpsD mutant) [µM]",Hydrophobicity (% AcN) [1] [% AcN],"MIC90, ΔmprF (GBS ΔmprF mutant) [µM]","MIC90, WT (GBS NEM316 WT strain) [µM]","MIC90, ΔsrtA (GBS ΔsrtA mutant) [µM]","Signal change [%], NaCl (16 mM), dltA (GBS dltA mutant; [2]) [%]","Signal change [%], NaCl (160 mM), dltA (GBS dltA mutant; [2])","Difference in signal change [%], NaCl (160 mM), Δ(dltA-WT) (GBS dltA mutant; difference in the signal change between dltA strain to the WT strain) [%]","Signal change [%], NaCl (16 mM), WT (GBS WT strain) [%]","Signal change [%], NaCl (160 mM), WT (GBS WT strain) [%]"
CC(C)C[C@H](NC(=O)[C@H](CC(C)C)NC(=O)[C@H](CCCCN)NC(=O)[C@H](CC(C)C)NC(=O)[C@H](CC(C)C)NC(=O)[C@H](CCCCN)NC(=O)[C@H](CCCCN)NC(=O)[C@H](CC(C)C)NC(=O)[C@H](CC(C)C)NC(=O)[C@H](CCCCN)NC(=O)[C@H](CCCCN)NC(=O)[C@H](CC(C)C)NC(=O)[C@H](CC(C)C)NC(=O)[C@H](CCCCN)NC(=O)[C@@H](N)CC(C)C)C(N)=O [K6L9] (H-LKLLKKLLKKLLKLL-NH2; N-terminus assumed),17.7,17.7,35.5,67.2,17.7,35.5,35.5,–,–,–,–,–
CC[C@H](C)[C@H](NC(=O)CN)C(=O)NCC(=O)N[C@@H](CCCCN)C(=O)N[C@@H](Cc1ccccc1)C(=O)N[C@@H](CC(C)C)C(=O)N[C@@H](Cc1c[nH]cn1)C(=O)N[C@@H](CO)C(=O)N[C@@H](C)C(=O)N[C@@H](CCCCN)C(=O)N[C@@H](CCCCN)C(=O)N[C@@H](Cc1ccccc1)C(=O)NCC(=O)N[C@@H](CCCCN)C(=O)N[C@@H](C)C(=O)N[C@@H](Cc1ccccc1)C(=O)N[C@H](C(=O)NCC(=O)N[C@@H](CCC(=O)O)C(=O)N[C@H](C(=O)N[C@@H](CCSC)C(=O)N[C@@H](CC(N)=O)C(=O)N[C@@H](CO)C(N)=O)[C@@H](C)CC)C(C)C [Magainin 2] (H-GIGKFLHSAKKFGKAFVGEIMNS-NH2),6.4,>25.5,>25.5,–,>25.5,>25.5,>25.5,–,–,–,–,–
CC(C)C[C@H](NC(=O)[C@H](CC(C)C)NC(=O)[C@H](CCCCN)NC(=O)[C@H](CC(C)C)NC(=O)[C@H](CC(C)C)NC(=O)[C@H](CC(C)C)NC(=O)[C@H](CCCCN)NC(=O)[C@H](CC(C)C)NC(=O)[C@H](CC(C)C)NC(=O)[C@H](CCCCN)NC(=O)[C@@H](N)CCCCN)C(=O)N[C@@H](CCCCN)C(N)=O [K5L7] (H-KKLLKLLLKLLK-NH2),25,–,–,–,–,25,–,–,–,–,–,–
Rho-LL37: rhodamine-labeled LL37 (N-terminus),–,–,–,–,–,–,–,−58.6,−32.7 ^c %,6.1,−60.8,−26.6
